This note sets out measurements from ChEMBL document CHEMBL4819046, “One pot synthesis, in silico study and evaluation of some novel flavonoids as potent topoisomerase II inhibitors” (Bioorg Med Chem Lett, 2021).

The term IC50 denotes the concentration at which inhibition is half-maximal.

Calls of active or inactive are those of the source. The rule behind the calls is not given here.

Data set [1] deals with T1, DNA topoisomerase 2-alpha (Homo sapiens, UniProt P11388). In words: Inhibition of human topoisomerase-2 alpha in human A498 cells assessed as decrease in relaxation of supercoiled DNA at 10 uM. It is filed as cell-based.
T1 sequence (P11388 whole entry): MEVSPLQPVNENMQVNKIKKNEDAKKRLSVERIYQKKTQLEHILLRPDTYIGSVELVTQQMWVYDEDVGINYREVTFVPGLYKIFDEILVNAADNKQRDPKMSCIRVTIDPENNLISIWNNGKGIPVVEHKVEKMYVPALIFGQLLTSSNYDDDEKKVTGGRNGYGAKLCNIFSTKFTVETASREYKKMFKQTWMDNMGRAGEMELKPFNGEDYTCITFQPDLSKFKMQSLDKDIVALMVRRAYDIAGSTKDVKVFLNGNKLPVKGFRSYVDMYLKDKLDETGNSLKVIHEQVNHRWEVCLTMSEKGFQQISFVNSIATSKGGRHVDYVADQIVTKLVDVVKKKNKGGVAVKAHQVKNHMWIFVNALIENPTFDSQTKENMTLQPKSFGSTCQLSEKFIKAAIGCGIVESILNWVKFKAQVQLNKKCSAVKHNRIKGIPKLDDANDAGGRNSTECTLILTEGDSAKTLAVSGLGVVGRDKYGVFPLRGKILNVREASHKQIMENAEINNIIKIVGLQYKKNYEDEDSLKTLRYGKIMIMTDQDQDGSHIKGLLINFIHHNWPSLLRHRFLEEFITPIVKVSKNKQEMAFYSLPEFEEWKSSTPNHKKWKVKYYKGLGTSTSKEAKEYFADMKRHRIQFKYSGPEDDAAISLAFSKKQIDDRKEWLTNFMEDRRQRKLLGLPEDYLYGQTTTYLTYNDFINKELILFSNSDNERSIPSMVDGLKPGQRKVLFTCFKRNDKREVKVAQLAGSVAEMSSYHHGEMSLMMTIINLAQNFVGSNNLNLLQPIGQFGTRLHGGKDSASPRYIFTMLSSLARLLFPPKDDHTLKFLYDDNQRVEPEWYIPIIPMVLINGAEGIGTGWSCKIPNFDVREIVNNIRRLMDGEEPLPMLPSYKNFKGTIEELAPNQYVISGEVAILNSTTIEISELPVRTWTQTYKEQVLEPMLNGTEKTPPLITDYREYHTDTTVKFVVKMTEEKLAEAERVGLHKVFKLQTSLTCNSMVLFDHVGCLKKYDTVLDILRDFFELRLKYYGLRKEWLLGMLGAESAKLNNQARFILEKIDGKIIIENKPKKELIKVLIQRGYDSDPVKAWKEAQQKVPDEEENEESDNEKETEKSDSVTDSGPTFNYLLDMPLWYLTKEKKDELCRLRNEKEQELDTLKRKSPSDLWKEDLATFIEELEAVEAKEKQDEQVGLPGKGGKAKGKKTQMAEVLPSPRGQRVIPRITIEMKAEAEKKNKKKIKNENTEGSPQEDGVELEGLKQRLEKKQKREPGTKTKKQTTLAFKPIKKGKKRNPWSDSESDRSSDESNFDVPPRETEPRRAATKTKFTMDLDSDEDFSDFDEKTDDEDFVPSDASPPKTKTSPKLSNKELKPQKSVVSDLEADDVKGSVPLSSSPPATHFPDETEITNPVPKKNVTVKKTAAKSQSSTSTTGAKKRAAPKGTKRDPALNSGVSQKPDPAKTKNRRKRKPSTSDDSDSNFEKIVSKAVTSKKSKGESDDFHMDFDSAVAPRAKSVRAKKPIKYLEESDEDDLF
For data set [2], the system named is MCF-10A. Nature of the data set: Cytotoxicity against human MCF-10A cells at <= 25 uM after 72 hrs by MTT assay. It is filed as cell-based. For orientation: Formazan colour is commonly taken as a measure of viable cells.
Another data set concerns A549. In words: Cytotoxicity against human A549 cells assessed as inhibition of cell proliferation after 72 hrs by MTT assay. The data set is classed as functional, cell-based. Particulars: A549, 72 h.
A further data set relates to MCF7. In words: Cytotoxicity against human MCF7 cells assessed as inhibition of cell proliferation after 72 hrs by MTT assay. Particulars: MCF7, 72 h. It is filed as functional, cell-based.
The subject of the next data set is HepG2. Nature of the data set: Cytotoxicity against human HepG2 cells assessed as inhibition of cell proliferation after 72 hrs by MTT assay. It is filed as functional, cell-based. As to conditions: HepG2, 72 h.
Data set [3] deals with MCF-10A. In words: Cytotoxicity against human MCF-10A cells assessed as reduction in cell viability after 72 hrs by MTT assay. The data set is classed as cell-based.
Data set [4] concerns MCF-10A. Nature of the data set: Cytotoxicity against human MCF-10A cells at 50 uM after 72 hrs by MTT assay. It is filed as cell-based.
Data set [5] concerns MCF-10A. In words: Cytotoxicity against human MCF-10A cells at 100 uM after 72 hrs by MTT assay. The data set is classed as cell-based.
In data set [6] the target is T1, DNA topoisomerase 2-alpha. In words: Inhibition of human topoisomerase-2alpha assessed as reduction in pBR322 DNA relaxation by gel electrophoresis method.

In the case of `N#CC1=C(N)Oc2c(c(=O)oc3ccccc23)C1c1cnc2ccccc2c1` (configuration not stated), the IC50 came out at 16.7 µM in data set [1]; 6.25 µM in the data set with A549; 1.56 µM in the data set with MCF7; 6.25 µM in the data set on HepG2; 94 µM in the data set on MCF-10A [3]. Also, the values for the Activity result in the data set with MCF-10A [2] and in the data set with MCF-10A [4] were “Non-Toxic” and “Toxic”, respectively.
Consider `Cc1cccc(-n2c(-c3coc4cc(C)c(Cl)cc4c3=O)nc(-c3ccccc3)c2-c2ccccc2)c1`, for which the figures for the Activity result with MCF-10A [2] and in the data set with MCF-10A [5] were “Non-Toxic” and “Toxic”, respectively. Moreover, the values for the IC50 in the data set on A549, in the data set with MCF7 and with HepG2 were 12.5 µM, 12.5 µM and 6.25 µM, respectively.
For the compound `N#CC1=C(N)Oc2c(c(=O)oc3ccccc23)C1c1c[nH]c2ccccc12` (configuration not stated), the IC50 is 12.4 µM in [1]; 1.56 µM in the data set with A549; 1.56 µM with MCF7; 12.5 µM with HepG2; 94 µM in the data set with MCF-10A [3]. Moreover, the Activity result was “Non-Toxic” with MCF-10A [2] and “Toxic” in the data set with MCF-10A [4]. Also, in data set [6], the inhibition entry is “Active”.
On to `Cc1cc2occ(-c3nc(-c4ccccc4)c(-c4ccccc4)n3-c3cccc([N+](=O)[O-])c3)c(=O)c2cc1Cl`, for which the Activity entry in the data set on MCF-10A [2] was “Non-Toxic”; in the data set on MCF-10A [4], “Toxic”. Further, the IC50 was 6.25 µM with A549, 1.56 µM in the data set with MCF7 and 25 µM in the data set with HepG2.
As to `Cc1cc2occ(-c3nc(-c4ccccc4)c(-c4ccccc4)n3-c3ccc(Cl)cc3)c(=O)c2cc1Cl`, the Activity result was “Non-Toxic” in the data set on MCF-10A [2] and “Toxic” in the data set with MCF-10A [4]. Besides, the IC50 in the data set with A549 was 12.5 µM; in the data set with MCF7, 12.5 µM; in the data set on HepG2, 1.56 µM; with MCF-10A [3], 92 µM.
Take `COc1cccc(-n2c(-c3coc4cc(C)c(Cl)cc4c3=O)nc(-c3ccccc3)c2-c2ccccc2)c1`: the Activity entry in the data set on MCF-10A [2] is “Non-Toxic”; in the data set with MCF-10A [5], “Toxic”. The IC50 in the data set on A549 is 6.25 µM; with MCF7, 25 µM; in the data set on HepG2, 6.25 µM.
Take `COc1ccccc1-n1c(-c2coc3cc(C)c(Cl)cc3c2=O)nc(-c2ccccc2)c1-c1ccccc1`: the Activity result with MCF-10A [2] was “Non-Toxic”; in the data set with MCF-10A [5], “Toxic”. For the same compound, the concentration for half-maximal inhibition (IC50) turned out to be 12.5 µM in the data set on A549, 25 µM in the data set on MCF7 and 12.5 µM in the data set on HepG2.
As to `N#CC1=C(N)Oc2c(c(=O)oc3ccccc23)C1C1CC1` (configuration not stated), the Activity entry in the data set with MCF-10A [2] is recorded as “Non-Toxic”; in the data set with MCF-10A [5], “Toxic”. In addition, the IC50 in the data set with A549 was 25 µM; in the data set on MCF7, 25 µM; with HepG2, 12.5 µM.
Consider `N#CC1=C(N)Oc2c(c(=O)oc3ccccc23)C1c1cc(=O)c2ccccc2o1` (configuration not stated), for which the IC50 in data set [1] is 26.4 µM; in the data set with A549 it was 1.56 µM; in the data set with MCF7 it was 12.5 µM; in the data set on HepG2, 6.25 µM; in the data set on MCF-10A [3] it was 90 µM. The Activity entry in the data set on MCF-10A [2] was “Non-Toxic”; in the data set on MCF-10A [4], “Toxic”.
With `COc1ccc(C2C(C#N)=C(N)Oc3c2c(=O)oc2ccccc32)c(OC)c1` (configuration not stated), the Activity result is “Non-Toxic” in the data set on MCF-10A [2] and “Toxic” with MCF-10A [5]. Moreover, the IC50 in the data set with A549 worked out at 6.25 µM; in the data set on MCF7, 25 µM; with HepG2 it was 3.12 µM.
Regarding `Cc1cc2occ(-c3nc(-c4ccccc4)c(-c4ccccc4)n3-c3ccccc3Cl)c(=O)c2cc1Cl`, the Activity entry in the data set on MCF-10A [2] is on record as “Non-Toxic”; with MCF-10A [5] it was “Toxic”. The IC50 worked out at 12.5 µM in the data set with A549, 3.12 µM in the data set with MCF7 and 6.25 µM with HepG2.
Turning to `Cc1cc2occ(-c3nc(-c4ccccc4)c(-c4ccccc4)n3-c3ccc(Cl)c(Cl)c3)c(=O)c2cc1Cl`, the IC50 was 39.9 µM in data set [1]; 6.25 µM in the data set on A549; 1.56 µM in the data set on MCF7; 12.5 µM in the data set with HepG2; 98 µM with MCF-10A [3]. Further, the Activity entry with MCF-10A [2] is given as “Non-Toxic”; with MCF-10A [4], “Toxic”.
Consider `N#CC1=C(N)Oc2c(c(=O)oc3ccccc23)C1c1cc2ccccc2s1` (configuration not stated), for which the IC50 turned out to be 10.3 µM in [1]; 1.56 µM in the data set on A549; 1.56 µM with MCF7; 6.25 µM in the data set with HepG2; 98 µM in the data set on MCF-10A [3]. Further, the Activity result with MCF-10A [2] is on record as “Non-Toxic”; in the data set on MCF-10A [4] it was “Toxic”. The inhibition result in [6] is “Active”.
As for `Cc1ccc(-n2c(-c3coc4cc(C)c(Cl)cc4c3=O)nc(-c3ccccc3)c2-c2ccccc2)cc1`, the Activity entry was “Non-Toxic” in the data set on MCF-10A [2] and “Toxic” in the data set on MCF-10A [5]. In addition, the IC50 in the data set on A549 is 12.5 µM; in the data set with MCF7 it was 12.5 µM; with HepG2 it was 6.25 µM.
As to `Cc1ccc(-n2c(-c3coc4cc(C)c(Cl)cc4c3=O)nc(-c3ccccc3)c2-c2ccccc2)c(C)c1`, the Activity entry with MCF-10A [2] is recorded as “Non-Toxic”; with MCF-10A [5], “Toxic”. Also, the figures for the IC50 in the data set on A549, with MCF7 and in the data set on HepG2 were 6.25 µM, 6.25 µM and 3.12 µM, respectively.
Consider `Cc1cc2occ(-c3nc(-c4ccccc4)c(-c4ccccc4)n3-c3ccc([N+](=O)[O-])cc3)c(=O)c2cc1Cl`, for which the IC50 in data set [1] was 48.4 µM; with A549, 3.12 µM; with MCF7 it was 6.25 µM; in the data set with HepG2 it was 25 µM; in the data set with MCF-10A [3], above 100 µM. The Activity entry with MCF-10A [2] was “Non-Toxic”; in the data set with MCF-10A [5], “Toxic”.
Take `Cc1cc2occ(-c3nc(-c4ccccc4)c(-c4ccccc4)n3-c3cccc(Cl)c3)c(=O)c2cc1Cl`: the Activity result in the data set with MCF-10A [2] is recorded as “Non-Toxic”; in the data set with MCF-10A [5], “Toxic”. Moreover, the IC50 amounted to 25 µM in the data set with A549, 6.25 µM in the data set with MCF7 and 25 µM with HepG2.
With `N#CC1=C(N)Oc2c(c(=O)oc3ccccc23)C1c1c2ccccc2cc2ccccc12` (configuration not stated), the Activity result was “Non-Toxic” with MCF-10A [2] and “Toxic” in the data set with MCF-10A [5]. For the same compound, the IC50 in the data set on A549 amounted to 25 µM; in the data set on MCF7, 12.5 µM; with HepG2 it was 25 µM.
Regarding `N#CC1=C(N)Oc2c(c(=O)oc3ccccc23)C1c1cc2ccccc2c2ccccc12` (configuration not stated), the Activity result is “Non-Toxic” in the data set on MCF-10A [2] and “Toxic” in the data set on MCF-10A [5]. In addition, the IC50 with A549, in the data set with MCF7 and in the data set on HepG2 was 25 µM throughout.
For the compound `Cc1cc2occ(-c3nc(-c4ccccc4)c(-c4ccccc4)n3-c3ccc(Br)cc3)c(=O)c2cc1Cl`, the IC50 was 17.1 µM in data set [1]; 25 µM with A549; 1.56 µM in the data set with MCF7; 6.25 µM in the data set on HepG2; above 100 µM in the data set with MCF-10A [3]. The Activity result in the data set on MCF-10A [2] is “Non-Toxic”; in the data set on MCF-10A [4], “Toxic”.
`Cc1cc2occ(C3C(C#N)=C(N)Oc4c3c(=O)oc3ccccc43)c(=O)c2cc1Cl` (configuration not stated): the Activity entry in the data set with MCF-10A [2] is on record as “Non-Toxic”; with MCF-10A [5], “Toxic”. Further, the IC50 with A549 turned out to be 6.25 µM; in the data set with MCF7, 6.25 µM; with HepG2, 12.5 µM.
